In ChEMBL document CHEMBL2385030, “Crystallographic Investigation and Selective Inhibition of Mutant Isocitrate Dehydrogenase” (ACS Med Chem Lett, 2013):

Columns and labels:
[1] = tested on: WI-38; experiment: Cytotoxicity against human WI38 cells assessed as growth inhibition after 48 hrs by MTS assay; format: cell-based; settings: WI-38, 48 h
[2] = target: Isocitrate dehydrogenase [NADP] cytoplasmic (Homo sapiens, UniProt O75874); experiment: Inhibition of wild type IDH1 (unknown origin) expressed in Escherichia coli BL21 using […] as substrate incubated for 5 mins prior to substrate addition measured every 30 secs
Isocitrate dehydrogenase [NADP] cytoplasmic, sequence (O75874 whole entry): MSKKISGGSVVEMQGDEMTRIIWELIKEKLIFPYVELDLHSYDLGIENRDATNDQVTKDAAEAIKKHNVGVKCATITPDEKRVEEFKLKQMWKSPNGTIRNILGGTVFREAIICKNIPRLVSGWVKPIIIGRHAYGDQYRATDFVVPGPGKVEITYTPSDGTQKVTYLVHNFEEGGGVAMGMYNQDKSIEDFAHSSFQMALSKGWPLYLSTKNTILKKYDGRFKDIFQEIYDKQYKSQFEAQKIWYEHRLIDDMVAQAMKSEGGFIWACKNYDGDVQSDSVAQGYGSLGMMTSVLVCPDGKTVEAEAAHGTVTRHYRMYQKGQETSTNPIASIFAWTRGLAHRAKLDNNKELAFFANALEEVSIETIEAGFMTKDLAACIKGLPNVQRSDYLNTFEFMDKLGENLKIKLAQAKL

Compound | EC50 [1] [µM] | Ki [2] [µM]
Cc1cc(Cc2ccccc2)n(O)c(=O)c1 | > 50 | –
Cc1cc(Cc2ccc(O)cc2)n(O)c(=O)c1 | > 50 | –
O=c1cccc(Cc2ccccc2)n1O | > 50 | –
CC(C)c1cc(Cc2ccccc2)n(O)c(=O)c1 | > 50 | –
Cc1cc(-c2ccccc2)n(O)c(=O)c1 | – | > 50
